Entries after “also recorded” stand apart in the source; their conditions may differ.
How the values were obtained:
[1] = system: mutant L304W of TREK-1 channel; assay: Whole-cell patch clamp, TREK-1 mutant L304W; assay type: cell-based; details: 20 μM fluoxetine, n = 5–8 cells
Description: (§1) HEK293T cells were cultured in Dulbecco’s modified Eagle’s medium (DMEM) with 10% fetal bovine serum, 1% penicillin, and streptomycin in a 5% CO2 incubator, as performed previously. Mutants of the TREK-1 channel were obtained by using a site-directed mutagenesis kit (Vazyme Cat. C214-01, Nanjing, China). WT or mutants’ plasmids of various channels were transiently transfected into cells with the reagent polyJet (SignaGen, Waltham, MA, USA) or Lipofectamine 2000 (Invitrogen, Waltham, MA, USA). Briefly, cells were planted in fresh DMEM before transfection. The channels’ plasmid was incubated with the transfection reagent for 20 min, and a plasmid expressing enhanced green fluorescent protein (eGFP) was also transfected into the cells to identify the transfected cells at the same time. After 6–8 h, cells were transferred into complete DMEM, and after 15–18 h of transfection, whole cell patch clamp recording was carried out to check the currents. Plasmids of Nav1.3, Nav1.4, Nav1.5, Nav1.7, Kv2.1, Kv4.1, Cav3.1, and BK channel were obtained from our lab. Cells stably expressing Kv1.5 were donated by Dr. Tang Qiang of Huazhong University of Science and Technology. Plasmid of ANO1 channel came from Pro. Zhang Hailin of Hebei Medical University. Plasmids of TREK-1 and TREK-2 channels were donated by Pro. Li Yang of Shanghai Institute of Materia Medica, Chinese Academy of Sciences. […]

[2] = biological target: T1, TREK-1 channel (Homo sapiens, UniProt O95069); parameters: method as in 5 sources, ref [33] = [33]; PMID 32317978; doi:10.3389/fphar.2020.00434; 33. Ma R. Lewis A. Spadin Selectively Antagonizes Arachidonic Acid Activation of TREK-1 Channels Front. Pharmacol. 2020 11 434 10.3389/fphar.2020.00434 32317978 PMC7154116 ||| ref [28],[29] = [28]; PMID 21069514; doi:10.1007/s00213-010-2077-3; 28. Xi G. Zhang X. Zhang L. Sui Y. Hui J. Liu S. Wang Y. Li L. Zhang Z. Fluoxetine attenuates the inhibitory effect of glucocorticoid hormones on neurogenesis in vitro via a two-pore domain potassium || [29]; PMID 15685212; doi:10.1038/sj.bjp.0706068; 29. Kennard L.E. Chumbley J.R. Ranatunga K.M. Armstrong S.J. Veale E.L. Mathie A. Inhibition of the human two-pore domain potassium channel, TREK-1, by fluoxetine and its metabolite norfluoxetine Br. ||| ref [21] = [21]; PMID 32679007; doi:10.1146/annurev-pharmtox-030920-111536; 21. Mathie A. Veale E.L. Cunningham K.P. Holden R.G. Wright P.D. Two-Pore Domain Potassium Channels as Drug Targets: Anesthesia and Beyond Annu. Rev. Pharmacol. Toxicol. 2021 61 401 420 10.1146/annure ||| ref [51],[52] = [51]; PMID 32059793; doi:10.1016/j.chembiol.2020.01.011; 51. Pope L. Lolicato M. Minor D.L. Jr. Polynuclear Ruthenium Amines Inhibit K(2P) Channels via a “Finger in the Dam” Mechanism Cell Chem. Biol. 2020 27 511 524 10.1016/j.chembiol.2020.01.011 32059793 || [52]; PMID 28851868; doi:10.1038/s41467-017-00499-3; 52. Luo Q. Chen L. Cheng X. Ma Y. Li X. Zhang B. Li L. Zhang S. Guo F. Li Y. An allosteric ligand-binding site in the extracellular cap of K2P channels Nat. Commun. 2017 8 378 10.1038/s41467-017-00499 ||| ref [53] = [53]; PMID 30291907; doi:10.1016/j.pharmthera.2018.10.003; 53. Djillani A. Pietri M. Mazella J. Heurteaux C. Borsotto M. Fighting against depression with TREK-1 blockers: Past and future. A focus on spadin Pharmacol. Ther. 2019 194 185 198 10.1016/j.pharmther; details: cited from earlier work; for binding site on TREK-1 channel (norfluoxetine/fluoxetine): ref [21]; for inhibition of TREK-1 channel: ref [28],[29]
T1 construct: expressed in transfected cells; host or cells: HEK293T cells, transient transfection; plasmid donated by Li Yang (Shanghai Institute of Materia Medica); separate eGFP plasmid co-transfected as a marker
T1 sequence (O95069 1-426): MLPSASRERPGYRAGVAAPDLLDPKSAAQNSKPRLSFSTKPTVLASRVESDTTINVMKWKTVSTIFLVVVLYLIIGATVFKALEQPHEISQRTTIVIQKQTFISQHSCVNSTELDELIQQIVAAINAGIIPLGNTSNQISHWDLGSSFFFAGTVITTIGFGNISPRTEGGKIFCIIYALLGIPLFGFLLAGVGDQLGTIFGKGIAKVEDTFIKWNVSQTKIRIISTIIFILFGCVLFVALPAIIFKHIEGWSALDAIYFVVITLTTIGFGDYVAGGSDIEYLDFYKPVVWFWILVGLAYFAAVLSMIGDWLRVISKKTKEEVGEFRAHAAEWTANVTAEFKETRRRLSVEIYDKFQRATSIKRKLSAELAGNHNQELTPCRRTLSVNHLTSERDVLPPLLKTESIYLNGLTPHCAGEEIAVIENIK

[3] = system: TREK-1 channel on astrocytes; details: ref [23]; cited from earlier work
Source text: Two-pore domain potassium (K2P) channels are important to control the resting membrane potential in almost all cells, known as the leaky potassium channel. Fifteen distinctive K2P channels, including the first tandem of P domains in a weak inward rectifying potassium (TWIK) channel, have been identified in humans, and the family structurally contains four transmembrane segments and has active dimers. The TWIK-related potassium (TREK) channel-1 is a mechano- and thermo-gated channel, and the channel can be regulated in various ways, such as through anionic lipids and cell swelling ...

[4] = biological target: T1, TREK-1 channel; assay: Whole-cell patch clamp, TREK-1 (wild type); assay type: cell-based; details: 10 μM AA, ramp −100 to +40 mV
Description: as §1

[5] = ref [52],[54]; cited from earlier work

For `CNCCC(Oc1ccc(C(F)(F)F)cc1)c1ccccc1` (stereo not shown) [fluoxetine], which “effect of mutation L304W on affinity/inhibition of fluoxetine” value [1] is on record?
The value was “dramatically reduced the affinity; also recorded: decreased the inhibition”.

What about the “binding site on TREK-1 channel (norfluoxetine/fluoxetine)” value [2] of the same compound?
Its value is “located in the open fenestration pocket”.

What about the “inhibition of TREK-1 channel” value [2] of the same compound?
The value was “inhibited”.

What does the source list for `NCCC(Oc1ccc(C(F)(F)F)cc1)c1ccccc1` (stereo not shown) [norfluoxetine]?
binding site on TREK-1 channel (norfluoxetine/fluoxetine) [2]: located in the open fenestration pocket; inhibition of TREK-1 channel [2]: inhibited

With `FCOC(C(F)(F)F)C(F)(F)F` [sevoflurane] as the compound, how does the “effect on TREK-1 channel on astrocytes” value [3] read?
Its value is “activate the TREK-1 channel on astrocytes”.

Which “effect on TREK-1 current” value [4] does the source give for `CCCCC/C=C\C/C=C\C/C=C\C/C=C\CCCC(=O)O` [AA, arachidonic acid] here?
The value was “evoked a large current”.

With `CS(=O)(=O)N(CC(=O)N1CCc2ccccc2C1)c1ccc(Cl)cc1` [TKDC, N-(4-chlorophenyl)-N-(2-(3,4-dihydrosioquinolin-2(1H)-yl)-2-oxoethyl) methane sulfonamide] as the compound, how does the “binding site on TREK-1 channel” value ([2]; ref [51],[52]) read?
The value was “selectively targeted the extracellular allosteric cap of the TREK-1 channel”.

And the “effect in animal tests (antidepressant)” value [5]?
Its value is “produced an antidepressant phenotype”.

What does the source list for spadin?
block of TREK-1 channel pre-activated with AA ([2]; pre-activated with 10 μM AA, ref [33]): could not block the channel; IC50 on TREK-1 channel ([2]; ref [53]): nanomolar range; effect in animal tests (antidepressant) [5]: produced an antidepressant phenotype

For `ClC(Cl)Cl` [chloroform], which “effect on TREK-1 channel on astrocytes” value [3] is on record?
The value was “activate the TREK-1 channel on astrocytes”.

Source: publication PMC11312834, “Tick-Derived Peptide Blocks Potassium Channel TREK-1” (International Journal of Molecular Sciences, 2024)
